Assay results from article doi:10.1101/822718v2 (biorxiv, 2020).
Read-outs that look alike come from different tables or passages of the source.

What was measured:
[1] = molecular target: T1, full-length elephant shark GR (Callorhinchus milii, UniProt V9KGN8); assay: transactivation assay, MMTV-luciferase reporter, HEK293 cells; type: cell-based
T1 sequence (V9KGN8 1-704): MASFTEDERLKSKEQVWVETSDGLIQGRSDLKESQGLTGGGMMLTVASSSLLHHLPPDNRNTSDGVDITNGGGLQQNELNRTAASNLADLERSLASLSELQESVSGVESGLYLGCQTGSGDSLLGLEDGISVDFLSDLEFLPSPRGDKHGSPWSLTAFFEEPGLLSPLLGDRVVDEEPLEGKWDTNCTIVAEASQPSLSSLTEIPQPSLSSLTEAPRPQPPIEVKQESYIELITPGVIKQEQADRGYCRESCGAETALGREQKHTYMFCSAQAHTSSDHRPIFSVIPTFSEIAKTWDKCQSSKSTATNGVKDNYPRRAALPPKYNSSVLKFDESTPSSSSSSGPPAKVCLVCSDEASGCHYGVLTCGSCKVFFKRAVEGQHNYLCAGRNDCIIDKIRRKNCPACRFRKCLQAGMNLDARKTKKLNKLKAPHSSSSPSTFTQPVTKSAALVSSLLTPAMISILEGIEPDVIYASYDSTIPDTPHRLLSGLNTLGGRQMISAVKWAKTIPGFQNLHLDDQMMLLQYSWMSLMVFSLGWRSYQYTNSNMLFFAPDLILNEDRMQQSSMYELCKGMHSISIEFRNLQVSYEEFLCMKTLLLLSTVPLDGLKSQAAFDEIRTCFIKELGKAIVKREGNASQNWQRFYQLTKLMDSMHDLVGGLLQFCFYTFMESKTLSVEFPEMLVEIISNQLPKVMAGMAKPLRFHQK

[2] = test system: Elephant shark Chimera GR-NTD+MR-DBD-hinge-LBD; conditions: agonist
[3] = molecular target: T1, full-length elephant shark GR; assay: cell-based; set-up: species or system HEK293
[4] = molecular target: T2, truncated elephant shark MR (Elephant shark MR-DBD-hinge-LBD) (Callorhinchus milii, UniProt A0A4W3I5J5); assay: cell-based; set-up: species or system HEK293
T2 sequence (A0A4W3I5J5 575-956 limits assumed): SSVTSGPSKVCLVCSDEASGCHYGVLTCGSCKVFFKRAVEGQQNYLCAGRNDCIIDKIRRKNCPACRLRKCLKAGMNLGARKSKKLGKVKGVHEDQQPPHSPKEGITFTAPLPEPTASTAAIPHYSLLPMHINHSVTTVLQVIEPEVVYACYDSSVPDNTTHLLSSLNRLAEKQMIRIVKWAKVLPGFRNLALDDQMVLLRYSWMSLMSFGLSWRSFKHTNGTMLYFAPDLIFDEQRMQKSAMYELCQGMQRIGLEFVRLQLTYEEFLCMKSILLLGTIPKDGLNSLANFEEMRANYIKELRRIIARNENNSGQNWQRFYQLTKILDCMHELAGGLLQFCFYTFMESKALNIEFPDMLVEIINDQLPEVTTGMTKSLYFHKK

[5] = molecular target: T3, full-length elephant shark MR (Callorhinchus milii, UniProt A0A4W3I5J5); assay: cell-based; set-up: species or system HEK293
T3 sequence (A0A4W3I5J5 1-956): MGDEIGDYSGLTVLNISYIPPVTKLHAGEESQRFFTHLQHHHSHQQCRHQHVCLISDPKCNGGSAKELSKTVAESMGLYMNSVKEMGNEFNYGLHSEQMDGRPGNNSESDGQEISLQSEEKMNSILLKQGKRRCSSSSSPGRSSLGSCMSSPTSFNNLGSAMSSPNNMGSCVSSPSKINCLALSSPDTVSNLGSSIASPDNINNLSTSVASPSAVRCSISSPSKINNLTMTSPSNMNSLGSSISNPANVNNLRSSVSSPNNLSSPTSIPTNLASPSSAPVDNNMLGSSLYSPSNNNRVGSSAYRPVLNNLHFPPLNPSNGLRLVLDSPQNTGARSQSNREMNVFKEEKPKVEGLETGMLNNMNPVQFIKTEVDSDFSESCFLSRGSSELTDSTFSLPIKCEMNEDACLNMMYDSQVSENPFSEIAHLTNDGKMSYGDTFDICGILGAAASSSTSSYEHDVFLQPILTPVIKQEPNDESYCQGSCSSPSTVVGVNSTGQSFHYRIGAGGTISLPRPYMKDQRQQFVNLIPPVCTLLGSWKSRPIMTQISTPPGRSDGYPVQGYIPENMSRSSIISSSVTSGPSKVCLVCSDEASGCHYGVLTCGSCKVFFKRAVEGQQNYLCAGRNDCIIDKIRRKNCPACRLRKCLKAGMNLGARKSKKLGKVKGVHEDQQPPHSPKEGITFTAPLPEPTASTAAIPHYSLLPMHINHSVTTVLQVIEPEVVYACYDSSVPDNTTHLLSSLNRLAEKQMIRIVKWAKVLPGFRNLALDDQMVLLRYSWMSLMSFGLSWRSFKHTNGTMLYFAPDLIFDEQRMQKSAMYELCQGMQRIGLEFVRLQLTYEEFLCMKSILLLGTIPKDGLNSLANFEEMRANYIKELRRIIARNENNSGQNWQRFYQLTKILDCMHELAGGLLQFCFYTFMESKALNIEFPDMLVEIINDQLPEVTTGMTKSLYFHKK

[6] = molecular target: truncated elephant shark MR (Elephant shark MR-DBD-hinge-LBD) (Callorhinchus milii, UniProt A0A4W3I5J5); assay: cell-based
[7] = molecular target: T4, truncated elephant shark GR (Elephant shark GR-DBD-hinge-LBD) (Callorhinchus milii, UniProt V9KGN8); assay: cell-based; set-up: species or system HEK293
T4 sequence (V9KGN8 346-704 limits assumed): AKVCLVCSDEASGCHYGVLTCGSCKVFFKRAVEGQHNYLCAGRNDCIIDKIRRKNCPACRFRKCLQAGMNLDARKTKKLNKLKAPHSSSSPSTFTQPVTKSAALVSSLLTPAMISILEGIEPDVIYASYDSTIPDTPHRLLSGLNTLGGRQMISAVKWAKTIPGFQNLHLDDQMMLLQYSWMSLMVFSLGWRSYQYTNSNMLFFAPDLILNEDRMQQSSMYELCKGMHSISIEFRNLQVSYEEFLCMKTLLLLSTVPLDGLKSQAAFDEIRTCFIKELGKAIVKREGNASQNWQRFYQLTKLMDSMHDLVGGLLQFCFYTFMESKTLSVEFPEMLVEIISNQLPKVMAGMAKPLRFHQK

[8] = molecular target: T2, truncated elephant shark MR (Elephant shark MR-DBD-hinge-LBD); assay: cell-based; set-up: species or system HEK293; remark: listed apart in the source
[9] = molecular target: T1, full-length elephant shark GR; assay: luciferase reporter transactivation, HEK293 cells; type: cell-based
[10] = molecular target: T1, full-length elephant shark GR; assay: inhibition of dexamethasone-activated luciferase reporter, HEK293 cells; type: cell-based
[11] = molecular target: T5, GAL4-DBD+elephant shark GR-hinge-LBD (Callorhinchus milii, UniProt V9KGN8); assay: cell-based; set-up: species or system HEK293
T5 sequence (V9KGN8 422-704 limits assumed): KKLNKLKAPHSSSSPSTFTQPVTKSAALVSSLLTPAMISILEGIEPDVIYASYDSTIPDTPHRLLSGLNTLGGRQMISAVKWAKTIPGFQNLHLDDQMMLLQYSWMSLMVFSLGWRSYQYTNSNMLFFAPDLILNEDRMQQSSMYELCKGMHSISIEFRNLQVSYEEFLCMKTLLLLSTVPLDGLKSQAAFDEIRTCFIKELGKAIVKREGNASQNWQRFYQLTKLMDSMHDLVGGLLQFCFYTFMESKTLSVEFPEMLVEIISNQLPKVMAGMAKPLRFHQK

[12] = test system: Elephant shark Chimera MR-NTD+GR-DBD-hinge-LBD; assay: transactivation assay, MMTV-luciferase reporter, HEK293 cells; type: cell-based, Callorhinchus milii; conditions: agonist
[13] = HEK293, read-out: DOC % Relative Induction, GR
[14] = HEK293, read-out: DOC % Relative Induction, MR
[15] = HEK293, read-out: Aldo % Relative Induction, GR
[16] = HEK293, read-out: Corticosterone % Relative Induction, GR
[17] = HEK293, read-out: Corticosterone % Relative Induction, MR
[18] = HEK293, read-out: Cortisol % Relative Induction, GR
[19] = HEK293, read-out: Cortisol % Relative Induction, MR
[20] = HEK293, read-out: Prog % Relative Induction, MR

C[C@]12CC[C@H]3[C@@H](CCC4=CC(=O)CC[C@@]43C)[C@@H]1CC[C@@H]2C(=O)CO [11-deoxycorticosterone]
EC50 [1]: ~28 nM
EC50 [2]: 0.03 nM
Emax [3, 13]: 53%
Emax [4, 14]: 77%
Emax [5, 14]: 86%
EC50 [6]: 0.1 nM
Emax [7, 13]: 30%

CC(=O)[C@H]1CC[C@H]2[C@@H]3CCC4=CC(=O)CC[C@@H]4[C@H]3CC[C@]12C [19norProg]
EC50 [8]: 0.2 nM
Emax ([5]; HEK293, read-out: 19norProg % Relative Induction, MR): 79%

CC#C[C@]1(O)CC[C@H]2[C@@H]3CCC4=CC(=O)CCC4=C3[C@@H](c3ccc(N(C)C)cc3)C[C@@]21C [RU486]
EC50 [9]: 8.7 nM
IC50 [10]: 2.2 nM

C[C@]12CCC(=O)C=C1CC[C@@H]1[C@@H]2[C@@H](O)C[C@]2(C=O)[C@@H](C(=O)CO)CC[C@@H]12 [aldosterone]
EC50 [1]: ~24 nM
EC50 [8]: 0.26 nM
Emax [11, 15]: 81%
Emax [3, 15]: 92%
Emax [7, 15]: 109%

C[C@]12C[C@H](O)[C@H]3[C@@H](CCC4=CC(=O)CC[C@@]43C)[C@@H]1CC[C@@H]2C(=O)CO [corticosterone]
EC50 [8]: 0.58 nM
Emax [11, 16]: 100%
EC50 [12]: 13 nM
Emax [3, 16]: 100%
Emax [4, 17]: 111%
Emax [5, 17]: 88%
Emax [7, 16]: 100%

C[C@]12CCC(=O)C=C1CC[C@@H]1[C@@H]2[C@@H](O)C[C@@]2(C)[C@H]1CC[C@]2(O)C(=O)CO [cortisol]
EC50 [1]: ~35 nM
EC50 [8]: 1.1 nM
Emax [3, 18]: 88%
Emax [4, 19]: 117%
Emax [5, 19]: 118%
Emax [7, 18]: 112%

CC(=O)[C@H]1CC[C@H]2[C@@H]3CCC4=CC(=O)CC[C@]4(C)[C@H]3CC[C@]12C [progesterone]
Emax [4, 20]: 78%
Emax [5, 20]: 38%
